In US7772383B2, “Chemical PCR: Compositions for enhancing polynucleotide amplification reactions” (The Trustees of Princeton University, priority 2002, dated 2010):

How the values were obtained:
Format in all cases: biochemical
[1] = test system: bovine brain glycolipid transfer protein (GTP) cDNA (660 bp); experiment: PCR amplification of GTP with lower denaturation/extension temperatures; conditions: for Potency: annealing 55° C., normalized: 1,5-pentanediol (95/72° C.) = 1; for Effective: concentration interval over which target band minus control is at least 50% of maximum volume
Experimental: (§1) Amplification reactions were carried out under the following general conditions. Those skilled in the art will appreciate, however, that to the extent that the conditions (set forth in this application) required for specific experiments described in this example were inconsistent with the following general conditions, limited exceptions to the following general conditions were made The general conditions were as follows: 10 Mm Tris-HCl (Ph 8.8), 50 Mm KCl, 1.5 Mm MgCl2, 0.01% (w/v) gelatin, 0.2 Um primers, 0.06 ng/ul template, 0.2 Mm each Dntp, 0.04 U/ul Taq polymerase. The templates used were bovine brain N-WASP cDNA (1518 bp), a 996 by segment of human myeloid leukocyte c-jun cDNA, a 511 by segment of human prostate-specific membrane antigen (PSM) cDNA, and bovine brain glycolipid transfer protein (GTP) cDNA (660 bp). cDNA synthesis was carried out using the FIRST-STRAND® RT-PCR kit from Stratagene on the respective mRNAs purchased from Clontech. All amplification reactions for gene were carried out using a single master batch of cDNA. Taq polymerase and dNTPs were obtained from Stratagene. Primers were obtained from Genosys. Primer melting temperatures (Tms) were calculated using the Genosys oligo calculator program. The sequences of the primers were as follows.
(§2) Polymerase chain reactions for the N-WASP gene were conducted on a ROBOCYCLER® Gradient 40 thermal cycler from Stratagene using 100 ul solutions in 600 ul thin-walled tubes. For expediency, amplification of c-jun, PSM and GTP was carried out in a ROBOCYCLER® Gradient 96 thermal cycler from Stratagene using 50 ul solutions in 200 ul thin-walled tubes. Prior to Taq polymerase addition, a hotstart protocol was carried out that consisted of an initial cycle of 95° C. for 5 minutes (11) to ensure complete first-strand separation, followed by a cycle of 54° C. for 5 minutes. Amplifications were run for 30 cycles. Denaturation was done for 1 minute at the minimum temperatures that yielded discernable amplification: 92° C. for N-WASP and 95° C. for c-jun, PSM and GTP. Extension was done at 72° C. for periods depending on target length: 2 minutes for N-WASP, 1.5 minutes for c-jun and GTP, and 1 minute for PSM. Annealings were carried out either at fixed concentrations of additives using temperature gradients of 38-56° C. for N-WASP and 44-58° C. for the other targets, or at varying concentrations of additives using fixed temperatures of 41° C. for N-WASP, 50° C. for c-jun and PSM, and 54° C. for GTP.
Amplification products were analyzed by agarose gel electrophoresis on 0.8% agarose gels in which 20 ul reaction products were loaded with 4 ul loading buffer. Gels were stained with ethidium bromide, visualized on a UV transilluminator (Fisher), and documented by photography. Densitometric quantitation of amplification products was carried out using IMAGE SCANNER® and IMAGE MASTER® software from Amersham Pharmacia. Background correction was done using the software's rolling disc method.
Two phases of investigations were carried out into the use of 62° C. extension temperature in PCR reactions. The first involved concentration gradients with 1,2-butanediol and 1,5-pentanediol employing 62° C. extension and 95° C. denaturation. The first template used was GTP. A larger range of concentrations was employed than usual in the experiments due to the anticipated increase in effective range. These concentrations were: 0.1, 0.31, 0.5, 0.6, 0.8, 0.9 and 1.1M for 1,2-butanediol and 0.01, 0.2, 0.3, 0.4, 0.5, 0.7 and 1.0M for 1,5-pentanediol. The second phase of investigation involved experiments in which the denaturation temperature was lowered to 92° C. The following concentrations were tested: 1,2-butanediol—0.1, 0.3, 0.5, 0.6, 0.7, 0.9, 1.1, 1.3, and 1.4M; 1,5-pentanediol: 0.1, 0.2, 0.3, 0.4, 0.5, 0.7, 1.0, and 1.4M. 1,2-butanediol was also tested with the more GC-rich template c-jun. The following concentrations were tested: 0.1, 0.3, 0.5, 0.7, 0.9, 1.1, 1.4M.

Taq polymerase = molecular target: T1, Taq polymerase (Thermus aquaticus, UniProt P19821); experiment: Taq polymerase activity assays at low temperature in the presence of additives; conditions: for Activity of Taq polymerase / Activation: 1.0M 1,5-pentanediol, 0.7M 1,6-hexanediol; for Activity of Taq polymerase: normalized to activity of control at 62° C.; for Activation: change in Taq activity versus control
T1 construct: purchased Stratagene
T1 sequence (P19821 whole entry): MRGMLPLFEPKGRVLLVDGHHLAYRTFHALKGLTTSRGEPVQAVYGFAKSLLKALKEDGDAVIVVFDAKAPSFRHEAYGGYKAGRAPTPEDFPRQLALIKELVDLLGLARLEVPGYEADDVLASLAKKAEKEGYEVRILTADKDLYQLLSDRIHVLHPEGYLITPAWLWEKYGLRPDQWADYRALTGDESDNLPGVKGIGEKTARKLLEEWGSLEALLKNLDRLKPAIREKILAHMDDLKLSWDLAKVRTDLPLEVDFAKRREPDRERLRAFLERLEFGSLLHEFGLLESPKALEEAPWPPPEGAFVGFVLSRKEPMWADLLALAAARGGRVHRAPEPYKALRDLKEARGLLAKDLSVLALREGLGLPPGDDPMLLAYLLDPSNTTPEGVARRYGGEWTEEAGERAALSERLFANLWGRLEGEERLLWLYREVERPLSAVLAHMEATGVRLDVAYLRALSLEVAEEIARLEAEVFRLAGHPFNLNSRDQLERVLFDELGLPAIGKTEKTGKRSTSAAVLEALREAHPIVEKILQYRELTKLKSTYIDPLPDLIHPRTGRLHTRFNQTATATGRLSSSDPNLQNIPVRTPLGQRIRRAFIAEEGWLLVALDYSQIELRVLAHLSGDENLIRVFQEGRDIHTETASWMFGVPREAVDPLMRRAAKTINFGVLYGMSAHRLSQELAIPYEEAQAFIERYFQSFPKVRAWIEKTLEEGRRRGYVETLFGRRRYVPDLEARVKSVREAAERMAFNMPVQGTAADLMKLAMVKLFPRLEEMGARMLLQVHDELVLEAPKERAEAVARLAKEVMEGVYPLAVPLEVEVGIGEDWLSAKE
Experimental: The measured polymerase activity, then, is in fact a function of two variables—temperature and additive concentration. The plot of measured activity versus temperature and additive concentration is a two-dimensional surface. While a truly comprehensive search for maximal polymerase activity would entail screening this entire surface, the number of experiments required to do so would of course be impractical. Therefore, polymerase activity was measured first as a function of temperature in the absence of additives and at one given, high additive concentration. The temperature that yielded the maximum activity of the polymerase at that concentration was then targeted for concentration gradient studies.
First, polymerase activity assays were carried out in the absence of additives and in the presence of 1.0M 1,5-pentanediol and 0.7M 1,6-hexanediol at temperatures between 46 and 62° C. Next, polymerase activity was studied at 53° C. in the presence of concentration gradients of 1,5-pentanediol, 2-pyrrolidone, sulfolane and tetramethylene sulfoxide. The concentrations tested were: 1,5-pentanediol: 1.0, 1.3, 1.5, 2.25, 3.0 and 3.5M; 2-pyrrolidone: 1.25, 1.5, 2.0 and 3.9M; sulfolane: 1.0, 1.5, 2.0 and 2.75M, tetramethylene sulfoxide: 1.0, 1.5, 2.0 and 3.0M.

[2] = test system: human myeloid leukocyte c-jun cDNA; experiment: PCR amplification of c-jun with lower denaturation/extension temperatures; conditions: for Potency: annealing 50° C.
Experimental: as §1, §2
Amplification products were analyzed by agarose gel electrophoresis on 0.8% agarose gels in which 20 ul reaction products were loaded with 4 ul loading buffer. […] Densitometric quantitation of amplification products was carried out using IMAGE SCANNER® and IMAGE MASTER® software from Amersham Pharmacia. […]

[3] = 92/62° C. denaturation/extension
[4] = 95/62° C. denaturation/extension

Question: What does the source list for OCCCCCO [1,5-Pentanediol]?
Answer: Potency [1, 3]: 1.97; Effective ([1]; 92/62° C.): 0.29-0.90; cutoff concentration ([1]; 92° C. denaturation, 62° C. extension): 1.0 M; Potency [1, 4]: 1.49; Effective ([1]; 95/62° C.): 0.15-0.63; Activation of Taq polymerase (Taq polymerase; 1.0M, within 49° C.-53° C.): exceeds 25%; Activity of Taq polymerase (Taq polymerase; 47° C.): 0.30; Activation (Taq polymerase; 47° C.): −9%; Activity of Taq polymerase (Taq polymerase; 48° C.): 0.40; Activation (Taq polymerase; 48° C.): −3%; Activity of Taq polymerase (Taq polymerase; 49° C.): 0.54; Activation (Taq polymerase; 49° C.): +10%; Activity of Taq polymerase (Taq polymerase; 50° C.): 0.59; Activation (Taq polymerase; 50° C.): +18%; Activity of Taq polymerase (Taq polymerase; 51° C.): 0.64; Activation (Taq polymerase; 51° C.): +21%; Activity of Taq polymerase (Taq polymerase; 52° C.): 0.69; Activation (Taq polymerase; 52° C.): +35%; Activity of Taq polymerase (Taq polymerase; 53° C.): 0.70; Taq polymerase activity at 3.5M (in words) (Taq polymerase; 53° C., 3.5M (36.4%)): residual activity; Activation (Taq polymerase; 53° C.): +23%; effect on Taq polymerase activity at high concentrations (in words) (Taq polymerase; 53° C., concentration gradients, compared with 2-pyrrolidone, sulfolane and tetramethylene sulfoxide): compromises polymerase activity to the least extent; Activity of Taq polymerase (Taq polymerase; 54° C.): 0.63; Activation (Taq polymerase; 54° C.): +3%; Activity of Taq polymerase (Taq polymerase; 55° C.): 0.57; Activation (Taq polymerase; 55° C.): −19%

Question: Which results are given for CCC(O)CO (stereo not shown) [1,2-Butanediol]?
Answer: Potency [1, 3]: 1.50; Effective ([1]; 92/62° C.): 0.50-1.27; Potency [1, 4]: 0.88; Effective ([1]; 95/62° C.): 0.10-0.82; Potency ([2]; 92/62° C. denaturation/extension, normalized: 1,5-pentanediol (95/72° C.) = 1): 0.91; Potency ([2]; 92/62° C. denaturation/extension, normalized: 1,5-pentanediol (95/72° C.) = 1, listed as 1,2-butanediol): High product yield; Effective ([2]; 92/62° C., concentration interval over which target band minus control is at least 50% of maximum volume): 0.72-1.02; Potency ([2]; 92/72° C. denaturation/extension, normalized: 1,5-pentanediol (95/72° C.) = 1): 0.00
